Reference: PubChem BioAssay AID248 (DTP/NCI, 2004)
Several values for one entry are separate records, joined by “and”; a condition that tells them apart may be missing. Equal values may be shown once. Toxic doses and inconclusive results are not listed. Rule as the data show it: active = T/C of 150% or more; inactive = T/C below 125%.

Tested on: L1210 leukemia ip in BDF1 mice, survival T/C
Experiment: NCI In Vivo Anticancer Drug Screen. Data for tumor model L1210 Leukemia (intraperitoneal) in B6D2F1 (BDF1) mice
Settings: endpoint: mean survival time, higher = longer survival
Summary of the method: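 Each compound was tested against a transplantable tumor grown in mice. The endpoint was survival, with treated animals benchmarked against vehicle controls as a simple ratio.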

[1] = dose: 100.0 mg/kg/injection, schedule: Q01DX001 (ip), vehicle: Klucel (hydroxypropylcellulose) (HPC)
[2] = dose: 100.0 mg/kg/injection, schedule: Q04DX003 (ip), vehicle: Klucel (hydroxypropylcellulose) (HPC)
[3] = dose: 100.0 mg/kg/injection, schedule: Q01DX009 (ip), vehicle: Klucel (hydroxypropylcellulose) (HPC)
[4] = dose: 200.0 mg/kg/injection, schedule: Q01DX009 (ip), vehicle: Klucel (hydroxypropylcellulose) (HPC)
[5] = dose: 200.0 mg/kg/injection, schedule: Q04DX003 (ip), vehicle: Klucel (hydroxypropylcellulose) (HPC)
[6] = dose: 400.0 mg/kg/injection, schedule: Q01DX009 (ip), vehicle: Klucel (hydroxypropylcellulose) (HPC)
[7] = dose: 400.0 mg/kg/injection, schedule: Q04DX003 (ip), vehicle: Klucel (hydroxypropylcellulose) (HPC)
[8] = dose: 100.0 mg/kg/injection, schedule: Q04DX003 (ip), vehicle: saline
[9] = dose: 200.0 mg/kg/injection, schedule: Q04DX003 (ip), vehicle: saline
[10] = dose: 400.0 mg/kg/injection, schedule: Q04DX003 (ip), vehicle: saline
[11] = dose: 50.0 mg/kg/injection, schedule: Q01DX001 (ip), vehicle: carboxymethylcellulose (CMC)
[12] = dose: 100.0 mg/kg/injection, schedule: Q01DX001 (ip), vehicle: carboxymethylcellulose (CMC)
[13] = dose: 200.0 mg/kg/injection, schedule: Q01DX001 (ip), vehicle: carboxymethylcellulose (CMC)
[14] = dose: 400.0 mg/kg/injection, schedule: Q01DX001 (ip), vehicle: carboxymethylcellulose (CMC)

Measured: T/C

CC(C)(Cl)/N=N/C(C)(C)Cl
inactive: dose: 25.0 mg/kg/injection, schedule: Q01DX001 (ip), vehicle: Klucel (hydroxypropylcellulose) (HPC) 99 % of control | dose: 25.0 mg/kg/injection, schedule: Q04DX003 (ip), vehicle: Klucel (hydroxypropylcellulose) (HPC) 98 % of control | dose: 50.0 mg/kg/injection, schedule: Q01DX001 (ip), vehicle: Klucel (hydroxypropylcellulose) (HPC) 92 % of control | dose: 50.0 mg/kg/injection, schedule: Q04DX003 (ip), vehicle: Klucel (hydroxypropylcellulose) (HPC) 97 % of control | [1] 94 % of control and 95 % of control | [2] 98 % of control

CCCCN(CCCC)C(=N)C(=N)N(CCCC)CCCC
inactive: dose: 50.0 mg/kg/injection, schedule: Q04DX002 (ip), vehicle: saline with Tween-80 100 % of control | dose: 100.0 mg/kg/injection, schedule: Q04DX002 (ip), vehicle: saline with Tween-80 100 % of control

CCOP(=S)(OCC)SC(C)c1ccccc1 (configuration not stated)
inactive: dose: 50.0 mg/kg/injection, schedule: Q01DX009 (ip), vehicle: saline with Tween-80 95 % of control | dose: 100.0 mg/kg/injection, schedule: Q01DX009 (ip), vehicle: saline with Tween-80 91 % of control | dose: 200.0 mg/kg/injection, schedule: Q01DX009 (ip), vehicle: saline with Tween-80 100 % of control

NC(CSS(=O)(=O)O)=NCc1ccncc1
inactive: dose: 25.0 mg/kg/injection, schedule: Q04DX002 (ip), vehicle: saline 95 % of control | dose: 50.0 mg/kg/injection, schedule: Q04DX002 (ip), vehicle: saline 103 % of control | dose: 100.0 mg/kg/injection, schedule: Q04DX002 (ip), vehicle: saline 123 % of control

COC(=O)C1CCC(NC(=O)N(CCCl)N=O)CC1 (configuration not stated)
active: dose: 13.0 mg/kg/injection, schedule: Q01DX001 (ip), vehicle: Klucel (hydroxypropylcellulose) (HPC) 212 % of control and 188 % of control | dose: 20.0 mg/kg/injection, schedule: Q01DX001 (ip), vehicle: Klucel (hydroxypropylcellulose) (HPC) 270 % of control and 283 % of control | dose: 30.0 mg/kg/injection, schedule: Q01DX001 (ip), vehicle: Klucel (hydroxypropylcellulose) (HPC) 283 % of control | dose: 44.0 mg/kg/injection, schedule: Q01DX001 (ip), vehicle: Klucel (hydroxypropylcellulose) (HPC) 248 % of control and 282 % of control | dose: 67.0 mg/kg/injection, schedule: Q01DX001 (ip), vehicle: Klucel (hydroxypropylcellulose) (HPC) 266 % of control
inactive: [1] 104 % of control

CCOC(=O)c1cnc(SC)nc1Oc1ccccc1F
inactive: [3] 105 % of control | [2] 96 % of control | [4] 96 % of control | [5] 119 % of control | [6] 97 % of control | [7] 91 % of control

COc1ccc(OC)c(NC(=S)N/N=C(\C)c2ccc(O)c(C)c2)c1
inactive: dose: 12.5 mg/kg/injection, schedule: Q04DX002 (ip), vehicle: Klucel (hydroxypropylcellulose) (HPC) 97 % of control | dose: 25.0 mg/kg/injection, schedule: Q04DX002 (ip), vehicle: Klucel (hydroxypropylcellulose) (HPC) 115 % of control

Nc1cccc(CCCCc2ccc(Cl)cc2Cl)c1
inactive: [1] 97 % of control | dose: 200.0 mg/kg/injection, schedule: Q01DX001 (ip), vehicle: Klucel (hydroxypropylcellulose) (HPC) 96 % of control | dose: 400.0 mg/kg/injection, schedule: Q01DX001 (ip), vehicle: Klucel (hydroxypropylcellulose) (HPC) 102 % of control

CCCCCCCCCCCCCCCCCCCCCCCCCC(=O)OCCCCCCCCCCCCCC
inactive: dose: 100.0 mg/kg/injection, schedule: Q01DX009 (ip), vehicle: saline 107 % of control | [8] 109 % of control | dose: 200.0 mg/kg/injection, schedule: Q01DX009 (ip), vehicle: saline 96 % of control | [9] 97 % of control | dose: 400.0 mg/kg/injection, schedule: Q01DX009 (ip), vehicle: saline 94 % of control | [10] 98 % of control

COc1ccc(Cl)cc1NC(=O)N(CCCl)N=O
inactive: dose: 0.1 mg/kg/injection, schedule: Q01DX009 (ip), vehicle: carboxymethylcellulose (CMC) 103 % of control | dose: 1.0 mg/kg/injection, schedule: Q01DX001 (ip), vehicle: carboxymethylcellulose (CMC) 122 % of control | dose: 1.0 mg/kg/injection, schedule: Q01DX009 (ip), vehicle: Klucel (hydroxypropylcellulose) (HPC) 105 % of control | dose: 2.0 mg/kg/injection, schedule: Q01DX001 (ip), vehicle: carboxymethylcellulose (CMC) 117 % of control | dose: 2.12 mg/kg/injection, schedule: Q01DX001 (ip), vehicle: Klucel (hydroxypropylcellulose) (HPC) 117 % of control | dose: 4.25 mg/kg/injection, schedule: Q01DX001 (ip), vehicle: Klucel (hydroxypropylcellulose) (HPC) 119 % of control | dose: 5.0 mg/kg/injection, schedule: Q01DX009 (ip), vehicle: Klucel (hydroxypropylcellulose) (HPC) 105 % of control | dose: 20.0 mg/kg/injection, schedule: Q01DX009 (ip), vehicle: carboxymethylcellulose (CMC) 100 % of control | dose: 26.0 mg/kg/injection, schedule: Q01DX009 (ip), vehicle: Klucel (hydroxypropylcellulose) (HPC) 87 % of control | dose: 30.0 mg/kg/injection, schedule: Q01DX009 (ip), vehicle: carboxymethylcellulose (CMC) 98 % of control | dose: 40.0 mg/kg/injection, schedule: Q01DX001 (ip), vehicle: carboxymethylcellulose (CMC) 93 % of control | dose: 75.0 mg/kg/injection, schedule: Q01DX001 (ip), vehicle: carboxymethylcellulose (CMC) 95 % of control
active: dose: 6.0 mg/kg/injection, schedule: Q01DX009 (ip), vehicle: carboxymethylcellulose (CMC) 153 % of control | dose: 8.8 mg/kg/injection, schedule: Q01DX009 (ip), vehicle: carboxymethylcellulose (CMC) 166 % of control | dose: 15.0 mg/kg/injection, schedule: Q01DX001 (ip), vehicle: carboxymethylcellulose (CMC) 151 % of control | dose: 17.0 mg/kg/injection, schedule: Q01DX001 (ip), vehicle: Klucel (hydroxypropylcellulose) (HPC) 158 % of control | dose: 17.0 mg/kg/injection, schedule: Q01DX009 (ip), vehicle: Klucel (hydroxypropylcellulose) (HPC) 174 % of control | dose: 26.0 mg/kg/injection, schedule: Q01DX001 (ip), vehicle: carboxymethylcellulose (CMC) 151 % of control and 196 % of control | dose: 30.0 mg/kg/injection, schedule: Q01DX001 (ip), vehicle: carboxymethylcellulose (CMC) 151 % of control

OCc1cc2ccccc2cc1O
inactive: [3] 97 % of control | [2] 97 % of control | [4] 106 % of control | [5] 94 % of control | [6] 108 % of control | [7] 89 % of control

CCNC(=O)Oc1ccc(S(=O)(=O)F)cc1Cl
inactive: dose: 25.0 mg/kg/injection, schedule: Q01DX001 (ip), vehicle: carboxymethylcellulose (CMC) 91 % of control | [11] 107 % of control | [12] 98 % of control and 100 % of control

O=C(COc1ccc(Cl)cc1)Oc1c(Cl)c(Cl)c(Cl)c(Cl)c1Cl
inactive: dose: 100.0 mg/kg/injection, schedule: Q04DX002 (ip), vehicle: Klucel (hydroxypropylcellulose) (HPC) 97 % of control | dose: 200.0 mg/kg/injection, schedule: Q04DX002 (ip), vehicle: Klucel (hydroxypropylcellulose) (HPC) 115 % of control | dose: 400.0 mg/kg/injection, schedule: Q04DX002 (ip), vehicle: Klucel (hydroxypropylcellulose) (HPC) 104 % of control

O=C(OCc1ccccc1)c1ccc(OCc2ccccc2)cc1
inactive: [8] 94 % of control | [9] 100 % of control | [10] 96 % of control

CC(=O)C1CC(CC(=O)O)C1(C)C (configuration not stated)
inactive: dose: 50.0 mg/kg/injection, schedule: Q01DX009 (ip), vehicle: Klucel (hydroxypropylcellulose) (HPC) 95 % of control | [3] 100 % of control | [2] 101 % of control | [4] 97 % of control | [5] 101 % of control | [7] 97 % of control

N#CCCCc1ccc(C(=O)O)cc1
inactive: [12] 95 % of control | [13] 100 % of control | [14] 97 % of control

O=C(O)CC1(C(=O)O)CCN(Cc2ccccc2)CC1
inactive: [2] 103 % of control | [5] 102 % of control | [7] 100 % of control

CN(N=O)c1ccc(C=C2c3ccccc3-c3ccccc32)cc1
inactive: [11] 102 % of control | [12] 106 % of control | [13] 96 % of control | [14] 102 % of control

S=c1nc2ccccn2c(=S)n1-c1ccccn1
inactive: dose: 100.0 mg/kg/injection, schedule: Q01DX001 (ip), vehicle: saline with Tween-80 106 % of control | dose: 200.0 mg/kg/injection, schedule: Q01DX001 (ip), vehicle: saline with Tween-80 100 % of control

O=[N+]([O-])c1ccccc1C=Nc1ccccc1O
inactive: [2] 103 % of control | [5] 97 % of control | [7] 94 % of control
